From US9562053B2, “Benzo-fused heterocyclic derivatives useful as agonists of GPR120” (Janssen Pharmaceutica NV, priority 2013, dated 2017)

Each compound was assayed against T1, Human GPR120 short form (Homo sapiens, UniProt Q5NUL3) (assay: Human GPR120 in Calcium Flux Assay, Procedure Calcium A (2500 cells/well)).
T1 construct: expressed in transfected cells
T1 sequence (Q5NUL3 1-361): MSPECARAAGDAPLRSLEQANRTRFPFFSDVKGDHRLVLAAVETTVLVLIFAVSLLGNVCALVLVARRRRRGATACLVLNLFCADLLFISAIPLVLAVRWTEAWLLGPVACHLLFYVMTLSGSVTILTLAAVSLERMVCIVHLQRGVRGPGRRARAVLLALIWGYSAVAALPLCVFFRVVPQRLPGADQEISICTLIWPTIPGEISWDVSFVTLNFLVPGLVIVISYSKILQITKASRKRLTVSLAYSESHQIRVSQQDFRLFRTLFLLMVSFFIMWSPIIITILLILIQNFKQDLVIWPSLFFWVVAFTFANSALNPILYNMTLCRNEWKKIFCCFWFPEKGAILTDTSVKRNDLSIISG
Type: cell-based
Outline: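 HEK293 cells stably expressing GPR120 short isoform, 2500 cells/well, serum-starved 1 h, loaded with Fluo-4 NW plus probenecid (30 min 37 °C, 15 min RT). Compounds prepared at 0.012–100 μM, 0.2% DMSO final. FLIPR calcium signal over 300 s as Fmax−Fmin; EC50 from variable-slope fit (Hill <2).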

SMILES | EC50 [nM]
Cc1c(CCC(=O)O)ccc(OCc2cc(Cl)cc3cc(C=CF)oc23)c1C (mixture of isomers) [Compound 88, 3-(4-((5-Chloro-2-(2-fluorovinyl)benzofuran-7-yl)methoxy)-2,3-dimethylphenyl)propanoic acid] | 147
Cc1c(CCC(=O)O)ccc(OCc2cc(F)cc3cc(C(F)(F)F)oc23)c1C [Compound 4, 3-(4-{[5-Fluoro-2-(trifluoromethyl)-1-benzofuran-7-yl]methoxy}-2,3-dimethylphenyl)propanoic acid] | 279
Cc1cc2c(COc3ccc(CCC(=O)O)c(C)c3C)cc(Cl)cc2o1 [Compound 81, 3-{4-[(6-Chloro-2-methyl-1-benzofuran-4-yl)methoxy]-2,3-dimethylphenyl}propanoic acid] | 136
CCCc1cc2cc(Cl)cc(COc3ccc(CCC(=O)O)c(C)c3C#N)c2o1 [Compound 41, 3-{4-[(5-Chloro-2-propyl-1-benzofuran-7-yl)methoxy]-3-cyano-2-methylphenyl}propanoic acid] | 291
Cc1cc2cc(Cl)c(C)c(COc3c(F)cc(CCC(=O)O)cc3F)c2o1 [Compound 86, 3-{4-[(5-Chloro-2,6-dimethyl-1-benzofuran-7-yl)methoxy]-3,5-difluorophenyl}propanoic acid] | 207
Cc1oc2cccc(COc3ccc(CCC(=O)O)c(C)c3C)c2c1C [Compound 60, 3-{4-[(2,3-Dimethyl-1-benzofuran-4-yl)methoxy]-2,3-dimethylphenyl}propanoic acid] | 162
Cc1c(CCC(=O)O)ccc(OCc2cc(F)cc3cc(C4CCCC4)oc23)c1C [Compound 18, 3-{4-[(2-Cyclopentyl-5-fluoro-1-benzofuran-7-yl)methoxy]-2,3-dimethylphenyl}propanoic acid] | 653
CCc1cc2cc(F)cc(COc3c(F)cc(CCC(=O)O)cc3F)c2o1 [Compound 17, 3-{4-[(2-Ethyl-5-fluoro-1-benzofuran-7-yl)methoxy]-3,5-difluorophenyl}propanoic acid] | 345
Cc1oc2c(COc3ccc(CCC(=O)O)c(C)c3C)cc(F)cc2c1F [Compound 5, 3-{4-[(3,5-Difluoro-2-methyl-1-benzofuran-7-yl)methoxy]-2,3-dimethylphenyl}propanoic acid] | 1240
Cc1nc2cc(Cl)cc(COc3ccc(CCC(=O)O)c(C)c3C)c2o1 [Compound 84, 3-{4-[(5-Chloro-2-methyl-1,3-benzoxazol-7-yl)methoxy]-2,3-dimethylphenyl}propanoic acid] | 131
Cc1cc2cc(Cl)cc(COc3ccc(CCC(=O)O)c(C)c3C)c2s1 [Compound 91, 3-{4-[(5-Chloro-2-methyl-1-benzothiophen-7-yl)methoxy]-2,3-dimethylphenyl}propanoic acid] | 1920
Cc1c(CCC(=O)O)ccc(OCc2cc(F)cc3cc(C#N)oc23)c1C [Compound 49, 3-{4-[(2-Cyano-5-fluoro-1-benzofuran-7-yl)methoxy]-2,3-dimethylphenyl}propanoic acid] | 237
Cc1cc2cc3c(c(COc4ccc(CCC(=O)O)c(C)c4C)c2o1)OCO3 [Compound 82, 3-{2,3-Dimethyl-4-[(6-methylfuro[2,3-f][1,3]benzodioxol-4-yl)methoxy]phenyl}propanoic acid] | 153
Cc1c(CCC(=O)O)ccc(OCc2cc(F)cc3cc(CC(C)C)oc23)c1C [Compound 23, 3-(4-{[5-Fluoro-2-(2-methylpropyl)-1-benzofuran-7-yl]methoxy}-2,3-dimethylphenyl)propanoic acid] | 339
Cc1c(CCC(=O)O)ccc(OCc2cc(F)cc3cc(C(F)F)oc23)c1C [Compound 32, 3-(4-{[2-(Difluoromethyl)-5-fluoro-1-benzofuran-7-yl]methoxy}-2,3-dimethylphenyl)propanoic acid] | 277
Cc1c(CCC(=O)O)ccc(OCc2cc(F)cc3cc(C(C)C)oc23)c1C [Compound 22, 3-(4-{[5-Fluoro-2-(1-methylethyl)-1-benzofuran-7-yl]methoxy}-2,3-dimethylphenyl)propanoic acid] | 166
COCc1cc2cc(F)cc(COc3ccc(CCC(=O)O)c(C)c3C)c2o1 [Compound 21, 3-(4-{[5-Fluoro-2-(methoxymethyl)-1-benzofuran-7-yl]methoxy}-2,3-dimethylphenyl)propanoic acid] | 159
Cc1oc2cc(Cl)cc(COc3ccc(CCC(=O)O)c(C)c3C)c2c1C [Compound 80, 3-{4-[(6-Chloro-2,3-dimethyl-1-benzofuran-4-yl)methoxy]-2,3-dimethylphenyl}propanoic acid] | 151
Cc1cc2c(F)c(OC(F)(F)F)c(F)c(COc3ccc(CCC(=O)O)c(F)c3F)c2o1 [Compound 75, 3-(4-{[4,6-Difluoro-2-methyl-5-(trifluoromethoxy)-1-benzofuran-7-yl]methoxy}-2,3-difluorophenyl)propanoic acid] | 182

These reach a lower EC50. Values come first.

EC50 [nM] | SMILES
79 | Cc1c(CCC(=O)O)ccc(OCc2cc(Cl)cc3cc(CC(F)F)oc23)c1C [Compound 87, 3-(4-{[5-Chloro-2-(2,2-difluoroethyl)-1-benzofuran-7-yl]methoxy}-2,3-dimethylphenyl)propanoic acid]
17 | CCc1cc2cc(OC(F)F)cc(COc3ccc(CCC(=O)O)c(C)c3C)c2o1 [Compound 57, 3-(4-{[5-(Difluoromethoxy)-2-ethyl-1-benzofuran-7-yl]methoxy}-2,3-dimethylphenyl)propanoic acid]
113 | Cc1cc2cc3c(c(COc4ccc(CCC(=O)O)c(C)c4C)c2o1)OCCO3 [Compound 90, 3-{2,3-Dimethyl-4-[(7-methyl-2,3-dihydrofuro[2,3-g][1,4]benzodioxin-5-yl)methoxy]phenyl}propanoic acid]
93 | CCCc1cc2cc(Cl)cc(COc3ccc(CCC(=O)O)c(F)c3F)c2o1 [Compound 59, 3-{4-[(5-Chloro-2-propyl-1-benzofuran-7-yl)methoxy]-2,3-difluorophenyl}propanoic acid]
64 | Cc1cc2c(F)c(OC(F)(F)F)c(F)c(COc3ccc(CCC(=O)O)c(C)c3C)c2o1 [Compound 71, 3-(4-{[4,6-Difluoro-2-methyl-5-(trifluoromethoxy)-1-benzofuran-7-yl]methoxy}-2,3-dimethylphenyl)propanoic acid]
28 | Cc1cc2cc(OC(F)(F)F)cc(COc3ccc(CCC(=O)O)c4c3CCC4)c2o1 [Compound 55, 3-(7-{[2-Methyl-5-(trifluoromethoxy)-1-benzofuran-7-yl]methoxy}-2,3-dihydro-1H-inden-4-yl)propanoic acid]
124 | Cc1c(CCC(=O)O)ccc(OCc2cc(Cl)cc3cnn(C)c23)c1C [Compound 7, 3-{4-[(5-Chloro-1-methyl-1H-indazol-7-yl)methoxy]-2,3-dimethylphenyl}propanoic acid]
18 | Cc1nc2c(COc3ccc(CCC(=O)O)c(C)c3C)cc(Cl)cc2s1 [Compound 98, 3-{4-[(6-Chloro-2-methyl-1,3-benzothiazol-4-yl)methoxy]-2,3-dimethylphenyl}propanoic acid]
29 | CCc1cc2cc(OC(F)(F)F)cc(COc3ccc(CCC(=O)O)c4c3CCC4)c2o1 [Compound 52, 3-(7-{[2-Ethyl-5-(trifluoromethoxy)-1-benzofuran-7-yl]methoxy}-2,3-dihydro-1H-inden-4-yl)propanoic acid]
20 | Cc1c(CCC(=O)O)ccc(OCc2cc(OC(F)(F)F)cc3cc(C=CF)oc23)c1C (mixture of isomers) [Compound 97, 3-(4-{[2-(2-Fluoroethenyl)-5-(trifluoromethoxy)-1-benzofuran-7-yl]methoxy}-2,3-dimethylphenyl)propanoic acid]
30 | Cc1c(CCC(=O)O)ccc(OCc2cc(OC(F)(F)F)cc3cc(CC(F)F)oc23)c1C [Compound 96, 3-(4-{[2-(2,2-Difluoroethyl)-5-(trifluoromethoxy)-1-benzofuran-7-yl]methoxy}-2,3-dimethylphenyl)propanoic acid]
39 | CCc1cc2cc(OC(F)(F)F)cc(COc3ccc(CCC(=O)O)c(C)c3C)c2o1 [Compound 12, 3-(4-{[2-Ethyl-5-(trifluoromethoxy)-1-benzofuran-7-yl]methoxy}-2,3-dimethylphenyl)propanoic acid]
96 | CCc1cc2cc(Cl)c(OC(C)C)c(COc3ccc(CCC(=O)O)c(C)c3C)c2o1 [Compound 65, 3-(4-{[5-Chloro-2-ethyl-6-(1-methylethoxy)-1-benzofuran-7-yl]methoxy}-2,3-dimethylphenyl)propanoic acid]
20 | Cc1cc2cc(Cl)cc(COc3ccc(CCC(=O)O)c(C)c3C)c2o1 [Compound 78, 3-{4-[(5-Chloro-2-methyl-1-benzofuran-7-yl)methoxy]-2,3-dimethylphenyl}propanoic acid]
77 | CCOc1ccc2cc(CC)oc2c1COc1ccc(CCC(=O)O)c(C)c1C [Compound 66, 3-{4-[(6-Ethoxy-2-ethyl-1-benzofuran-7-yl)methoxy]-2,3-dimethylphenyl}propanoic acid]
22 | CCCc1cc2cc(I)cc(COc3ccc(CCC(=O)O)c(C)c3C)c2o1 [Compound 47, 3-{4-[(5-Iodo-2-propyl-1-benzofuran-7-yl)methoxy]-2,3-dimethylphenyl}propanoic acid]
20 | Cc1cc2cc(OC(F)F)cc(COc3ccc(CCC(=O)O)c(C)c3C)c2o1 [Compound 76, 3-(4-{[5-(Difluoromethoxy)-2-methyl-1-benzofuran-7-yl]methoxy}-2,3-dimethylphenyl)propanoic acid]
